Legend:
Assay in all cases: Isothermal titration calorimetry
Fn-NanK = target: T1, Fn-NanK (Fusobacterium nucleatum, UniProt Q8RDN7); type: binding, F. nucleatum; conditions: Fn-NanK wild type
T1 sequence (Q8RDN7 1-291): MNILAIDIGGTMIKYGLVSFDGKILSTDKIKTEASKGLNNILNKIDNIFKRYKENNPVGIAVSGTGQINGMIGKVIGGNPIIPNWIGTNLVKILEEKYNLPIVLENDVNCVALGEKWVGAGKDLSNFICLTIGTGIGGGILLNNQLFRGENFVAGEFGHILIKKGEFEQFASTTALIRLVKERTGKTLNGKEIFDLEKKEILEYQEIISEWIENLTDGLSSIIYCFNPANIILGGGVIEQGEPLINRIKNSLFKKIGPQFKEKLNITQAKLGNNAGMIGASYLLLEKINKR

Vc-NanK = target: T2, Vc-NanK (Vibrio cholerae serotype O1, UniProt Q9KR61); type: binding, V. cholera
T2 sequence (Q9KR61 1-287): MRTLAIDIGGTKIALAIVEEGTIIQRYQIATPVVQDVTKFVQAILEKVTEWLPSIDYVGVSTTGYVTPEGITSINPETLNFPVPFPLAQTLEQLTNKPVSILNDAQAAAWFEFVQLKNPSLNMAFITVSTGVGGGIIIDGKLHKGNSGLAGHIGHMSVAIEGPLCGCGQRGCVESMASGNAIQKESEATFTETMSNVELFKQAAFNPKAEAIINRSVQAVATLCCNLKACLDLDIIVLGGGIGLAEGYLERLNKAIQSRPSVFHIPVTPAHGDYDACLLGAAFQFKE

Hi-NanK = target: T3, Hi-NanK (Haemophilus influenzae, UniProt Q4QP43); type: binding, H. influenzae
T3 sequence (Q4QP43 1-300): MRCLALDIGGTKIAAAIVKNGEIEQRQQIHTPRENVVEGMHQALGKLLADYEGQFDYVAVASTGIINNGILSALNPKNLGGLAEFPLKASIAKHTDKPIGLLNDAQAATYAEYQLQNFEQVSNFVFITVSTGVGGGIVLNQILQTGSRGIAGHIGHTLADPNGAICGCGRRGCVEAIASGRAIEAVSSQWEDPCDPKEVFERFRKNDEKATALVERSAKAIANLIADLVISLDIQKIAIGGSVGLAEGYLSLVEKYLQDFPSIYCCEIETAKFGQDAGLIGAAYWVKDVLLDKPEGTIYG

Pm-NanK = target: T4, Pm-NanK (Pasteurella multocida, UniProt Q9CKB3, M259T); type: binding, P. multocida
T4 sequence (Q9CKB3 1-297 M259T): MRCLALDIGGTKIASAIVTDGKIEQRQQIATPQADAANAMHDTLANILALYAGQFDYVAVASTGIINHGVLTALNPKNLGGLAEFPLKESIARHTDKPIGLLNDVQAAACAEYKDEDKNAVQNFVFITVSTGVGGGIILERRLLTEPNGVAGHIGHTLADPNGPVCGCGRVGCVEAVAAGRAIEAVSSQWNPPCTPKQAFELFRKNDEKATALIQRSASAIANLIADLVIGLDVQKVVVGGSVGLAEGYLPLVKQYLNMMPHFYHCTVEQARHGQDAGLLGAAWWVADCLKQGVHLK

[1] = Hi-NanK wild type, ligand alone
[2] = Hi-NanK, in the presence of ManNAc

## Nc1ncnc2c1ncn2[C@@H]1O[C@H](COP(=O)(O)OP(=O)(O)NP(=O)(O)O)[C@@H](O)[C@H]1O [AMPPNP, adenylyl-imidodiphosphate]
Fn-NanK; in the presence of ManNAc
  Kd: 35 ± 1.12 µM
  TΔS: –2.87 Kcal/mol
  ΔH: –8.94 ± 0.18 Kcal/mol
Fn-NanK; ligand alone
  Kd: 61 ± 7.48 µM
  TΔS: 2.13 kcal/mol
Vc-NanK; in the presence of ManNAc
  Kd: 44 ± 9.2 µM
  TΔS: 3.814 kcal/mol
  ΔH: –2.1 ± 0.482 Kcal/mol
Vc-NanK; ligand alone
  Kd: no measurable binding
Hi-NanK; [1]
  Kd: 53 ± 6.4 µM
  TΔS: –1.85 Kcal/mol
  ΔH: –7.7 ± 2.44 Kcal/mol
Hi-NanK; [2]
  Kd: 72 ± 12 µM
  TΔS: 1.94 kcal/mol
  ΔH: –3.7 ± 0.68 Kcal/mol
Pm-NanK; in the presence of ManNAc
  Kd: 112 ± 14.5 µM
  TΔS: 1.1 kcal/mol
  ΔH: –4.3 ± 0.35 Kcal/mol
Pm-NanK; ligand alone
  Kd: no measurable binding

Reference: paper PMC7726757 (ACS Omega, 2020)
